Values joined by “and” are separate entries in the source; they are usually repeats but may differ in a detail not shown here. Equal values may be shown once.
Assays:
[1] = system: Adriamycin (ADR)-induced nephropathy in Balb/c mice; test: Adriamycin-induced nephropathy, dose-finding pilot study: ACR and body weight time course; conditions: ADR, 10 mg/Kg/day, individual mice, 10 mg/kg/day
[2] = system: human podocytes; test: apoAI-mediated cholesterol efflux in human podocytes; assay type: cell-based
Experimental: Cell lines were purchased from ATCC and subcultured for no more than passage 15, except for human podocytes, which were originally from Dr Jochen Reiser. Conditionally immortalized human podocytes were cultured under permissive conditions at 33 °C, in RPMI medium (Corning) containing 10% FBS (GIBCO), 1% penicillin/streptomycin, 0.01 mg/ml recombinant human insulin, 0.0055 mg/ml human transferrin (substantially iron-free), and 0.005 μg/ml sodium selenite (ITS, Corning). To induce differentiation, podocytes were cultured at 37 °C for 14 days in RPMI medium containing 10% FBS (GIBCO) and 1% penicillin/streptomycin. Differentiated podocytes were starved in RPMI-0.2% FBS for 18 h and then treated with 1 μM, 5 μM, and 10 μM of compounds freshly prepared in DMSO for 18 h at 37 °C as indicated.
Human podocytes differentiated for 13 days were labeled for 24 h at 37 °C in RPMI medium containing 2% FBS and [^3H]-cholesterol (1 μCi/ml, American Radiolabeled Chemicals). Cells were then washed 3 times with PBS and incubated with RPMI supplemented with 0.2% fat free-BSA (Sigma) with or without compounds for 18-h at 37 °C. The compounds were used at the following concentrations: Cpd C (1 μM), Cpd A (1 μM, 5 μM) and Cpd G (1 μM, 5 μM, 10 μM). Following the 18-h incubation, human apoAI (Calbiochem) was added to the media, (20 μg/mL final concentration) and the cells were incubated for another 18 h at 37 °C. Aliquots of medium collected before (T = 0 h) and after (T = 18 h) the addition of apoAI were centrifuged at 12,000 × g for 5 min and the radioactivity in the supernatant was counted by liquid scintillation. Cells were then washed with PBS, lysed 0.1% SDS, 0.1M NaOH and the radioactivity in the lysates was quantified by liquid scintillation. apoAI-mediated cholesterol efflux, expressed as %, was calculated as the amount of label released to the medium after adding apoAI (the difference in radioactivity in the medium before and after adding ApoA1) divided by the amount of total label in each well (radioactivity released to the media plus radioactivity in the lysed cells).

[3] = system: Adriamycin (ADR)-induced nephropathy in Balb/c mice; test: ADR nephropathy: blood urea nitrogen (BUN) and serum creatinine; assay type: in vivo, mouse; conditions: 28 days treatment
Description: Supplement 41467_2021_24890_MOESM5_ESM.xlsx, sheet "Supplementary Table 4" | column: ADR+ Cpd A; ADR+ Cpd G; ADR+ Cpd C

[4] = system: Adriamycin (ADR)-induced nephropathy in Balb/c mice; test: ADR nephropathy: liver total cholesterol, cholesterol esters, triglycerides; assay type: in vivo, mouse
[5] = system: Adriamycin (ADR)-induced nephropathy in Balb/c mice; test: ADR nephropathy: serum cholesterol and triglycerides; assay type: in vivo, mouse
[6] = ADR-injected mice, 28-day treatment, 25th quartile
[7] = ADR-injected mice, 28-day treatment, 75th quartile
[8] = ADR-injected mice, 28-day treatment, group maximum
[9] = ADR-injected mice, 28-day treatment, group median
[10] = ADR-injected mice, 28-day treatment, group minimum
[11] = ADR-injected mice, 28-day treatment, individual mouse values

## Cc1oc(-c2cccc(C(F)(F)F)c2)nc1Cn1c(C)cc2cc(C(O)(C(F)(F)F)C(F)(F)F)ccc21 [Cpd C, reference compound]
[1]; 0 days after inj
  Body Weight: 20 grams and 18 grams (2×) and 19 grams (2×)
[1]; 7 days after inj
  ACR in spot urine: 0.033 mg Albumin/ mg Creatinine in urine and 0.087 mg Albumin/ mg Creatinine in urine and 0.021 mg Albumin/ mg Creatinine in urine and 0.039 mg Albumin/ mg Creatinine in urine and 0.361 mg Albumin/ mg Creatinine in urine
  Body Weight: 19 grams (2×) and 17 grams and 18 grams (2×)
[1]; 14 days after inj
  ACR in spot urine: 43.998 mg Albumin/ mg Creatinine in urine and 97.732 mg Albumin/ mg Creatinine in urine and 170.881 mg Albumin/ mg Creatinine in urine and 0.773 mg Albumin/ mg Creatinine in urine and 96.907 mg Albumin/ mg Creatinine in urine
  Body Weight: 18 grams (2×) and 15 grams and 17 grams (2×)
[1]; 21 days after inj
  ACR in spot urine: 110.345 mg Albumin/ mg Creatinine in urine and 164.518 mg Albumin/ mg Creatinine in urine and 91.2 mg Albumin/ mg Creatinine in urine and 9.219 mg Albumin/ mg Creatinine in urine and 93.57 mg Albumin/ mg Creatinine in urine
  Body Weight: 18 grams (2×) and 13 grams and 19 grams and 16 grams
[1]; 28 days after inj
  ACR in spot urine: 28.989 mg Albumin/ mg Creatinine in urine and 87.25 mg Albumin/ mg Creatinine in urine and 19.88 mg Albumin/ mg Creatinine in urine and 5.463 mg Albumin/ mg Creatinine in urine and 97.01 mg Albumin/ mg Creatinine in urine
  Body Weight: 19 grams (2×) and 13 grams and 20 grams and 16 grams
[2]; 1 uM, single experiments
  ApoA1-mediated cholesterol efflux (%) in podocytes: 4.5% and 5% and 2.7% and 7.8% and 4.9% and 4.1% and 8.1%
[2]; Cpd G 10 µM, Cpd A 5 µM, Cpd C 1 µM
  Increase in apoAI-mediated cholesterol efflux vs. untreated cells: ~2 fold
[3]; 25th quartile
  BUN, QR(25): 16 mg/dL
  sCre, QR(25): 0.09 mg/dL
[3]; 75th quartile
  BUN, QR(75): 20 mg/dL
  sCre, QR(75): 0.16 mg/dL
[3]; group maximum
  BUN, Max: 51 mg/dL
  sCre, Max: 0.47 mg/dL
[3]; group median
  BUN, Median: 17 mg/dL
  sCre, Median: 0.12 mg/dL
[3]; group minimum
  BUN, Min: 13 mg/dL
  sCre, Min: 0.09 mg/dL
[3]; individual mouse values
  Blood Urea nitrogen (BUN): 13 mg/dL and 32 mg/dL and 18 mg/dL and 16 mg/dL and 20 mg/dL and 51 mg/dL and 17 mg/dL
  Serum Creatinine sCre: 0.16 mg/dL and 0.47 mg/dL and 0.12 mg/dL and 0.09 mg/dL and 0.29 mg/dL and 0.14 mg/dL
[4]; ADR model, individual animals
  LIVER CHOLESTEROL ESTERS: 3.92 nmol CE/ mg protein and 1.48 nmol CE/ mg protein and 3.2 nmol CE/ mg protein and 3.1 nmol CE/ mg protein
  LIVER TOTAL CHOLESTEROL: 132 nmol Cholesterol/ mg protein and 89 nmol Cholesterol/ mg protein and 311 nmol Cholesterol/ mg protein and 91 nmol Cholesterol/ mg protein
  LIVER TRIGLICERIDES: 48.5 nmol Triglycerides/ mg protein and 45 nmol Triglycerides/ mg protein and 67 nmol Triglycerides/ mg protein and 56 nmol Triglycerides/ mg protein
[4]; ADR-challenged, 28 days
  Hepatic triglyceride content vs. vehicle-treated controls: increased hepatic triglyceride content
[5]; ADR model, individual animals
  SERUM CHOLESTEROL: 104 and 64 and 223 and 112 and 98 and 124 and 145 and 136 and 60
  SERUM TRIGLYCERIDES: 57 and 182 and 112 and 55 and 91 and 62 and 66 and 44
[5]; [6]
  Serum cholesterol, QR(25): 98 mg/dL
  Serum triglycerides, QR(25): 57 mg/dL
[5]; [7]
  Serum cholesterol, QR(75): 136 mg/dL
  Serum triglycerides, QR(75): 91 mg/dL
[5]; [8]
  Serum cholesterol, Max: 223 mg/dL
  Serum triglycerides, Max: 182 mg/dL
[5]; [9]
  Serum cholesterol, Median: 112 mg/dL
  Serum triglycerides, median: 62 mg/dL
[5]; [10]
  Serum cholesterol, Min: 60 mg/dL
  Serum triglycerides, Min: 44 mg/dL
[5]; [11]
  SERUM CHOLESTEROL: 64 mg/dL and 223 mg/dL and 112 mg/dL and 98 mg/dL and 124 mg/dL and 145 mg/dL and 136 mg/dL and 60 mg/dL and 104 mg/dL
  SERUM TRIGLYCERIDES: 57 mg/dL and 62 mg/dL and 66 mg/dL and 44 mg/dL and 182 mg/dL and 112 mg/dL and 55 mg/dL and 91 mg/dL
[5]; serum, after ADR challenge
  Cholesterol (mg/dL), Median(IQR): 112(81-141) mg/dL
  Cholesterol (mg/dL), Range: 60 to 223 mg/dL
  Cholesterol, % of the group> 112 mg/dL: 30%
  Triglycerides (mg/dL), Median(IQR): 62(56-102) mg/dL
  Triglycerides (mg/dL), Range: 44 to 182 mg/dL
